Tests used:
ApoE [1] = assay: astrocyte screening assay: secreted ApoE in rat type 1 astrocyte cultures; type: cell-based; details: for levels of extracellular (secreted) ApoE: astrocyte screening assay
Source text: Other culture systems which may be used include human culture systems of primary cells derived from human tissue or immortalized cell lines of nerve tissue origin such as the human astrocyte cell line, AsCH-7 (Bobryshev et al., 1995). In addition, novel cell lines from patients with various apoE genotypes may be used, as well as cell lines from patients suffering or predisposed to suffer from any of the neurodegenerative diseases described herein. Adult spinal cord from post-mortem patients with any of the above diseases may be used as a source for deriving cell lines of nerve tissue origin. One method of immortalizing cells from these patients is to infect primary tissue with a replication-deficient retrovirus containing DNA sequences encoding the SV40 large T antigen (Whittemore et al., 1994). Another method is to derive immortal human-human hybrid cell lines that express phenotypic characteristics of primary oligodendrocytes or astrocytes by fuising a 6-thioguanine-resistant mutant of the human rhabdomyosarcoma RD cell line with adult human nerve tissue by a lectin-enhanced polyethylene glycol procedure (McLaurin et al., 1995). Other methods for immortalizing cells derived from primary human nerve tissue could include the use of chemical carcinogens or radiation. […] Antibodies to ApoE allow for the design of a high throughput assay using an immunoassay detection method.
(§1) To verify this working hypothesis, we have examined the effect of various concentration of tacrine on ApoE synthesis and secretion in brain cells in culture. FIG. 5 illustrates the effect of tacrine on ApoE secretion in rat type 1 astrocyte cultures exposed (for 8 hours) to physiological and pharmacological concentrations of the drug. […] Experimental methods used to monitor ApoE levels are described in Bertrand et al., Mol. Brain Res. 33:174-178 (1995).

Alzheimer's disease = details: Alzheimer's patients treated for very long periods; cited from earlier work
ApoE [2] = details: AD subjects treated with tacrine for several months, N = 4; untreated Alzheimer 0.36
Method: as §1

SMILES | levels of extracellular (secreted) ApoE (ApoE [1]) | delay of institutionalization (Alzheimer's disease) | ApoE secretion in astrocytes (ApoE [1]; rat type 1 astrocyte cultures exposed for 8 hours, 2 uM, concentration typically found in CSF of treated AD patients) | ApoE Concentration In the Cerebrospinal Fluid (CSF), Mean (ApoE [2])
COc1cc2c(cc1OC)C(=O)C(CC1CCN(Cc3ccccc3)CC1)C2 (stereo not drawn) [donepezil] | no effect | – | – | –
CCCCCCCNC(=O)Oc1ccc2c(c1)[C@]1(C)CCN(C)[C@@H]1N2C [heptylphysostigmine] | increase | – | – | –
Nc1c2c(nc3ccccc13)CCCC2 [tacrine] | increase | more than 1.5 years | increases | 0.41 mg/dL

Reference: US20010051602A1, “Methods for increasing ApoE levels for the treatment of neurodegenerative disease” (priority 1997, published 2001)
